Measured values taken from the kinase profiling compilation of Christmann-Franck et al. (2016).

Assays:
Test in all cases: radiometric filter-binding kinase assay, Kinase HotSpot
Settings in all cases: compound 0.5 µM; ATP 10 µM
ABL1 (human) = ABL1 (human) (UniProt P00519)
ACVRL1 (human) = ACVRL1 (human) (UniProt P37023)
BRSK2 (human) = BRSK2 (human) (UniProt Q8IWQ3)
BTK (human) = BTK (human) (UniProt Q06187)
CAMK2G (human) = CAMK2G (human) (UniProt Q13555)
CAMK4 (human) = CAMK4 (human) (UniProt Q16566)
CDK7 CCNH MNAT1 (human) = CDK7 CCNH MNAT1 (human) (UniProt P50613+P51948+P51946)
CDK9 CCNK (human) = CDK9 CCNK (human) (UniProt O75909+P50750)
CLK1 (human) = CLK1 (human) (UniProt P49759)
CLK3 (human) = CLK3 (human) (UniProt P49761)
CLK3 (human), sequence (P49761 whole entry, looked up): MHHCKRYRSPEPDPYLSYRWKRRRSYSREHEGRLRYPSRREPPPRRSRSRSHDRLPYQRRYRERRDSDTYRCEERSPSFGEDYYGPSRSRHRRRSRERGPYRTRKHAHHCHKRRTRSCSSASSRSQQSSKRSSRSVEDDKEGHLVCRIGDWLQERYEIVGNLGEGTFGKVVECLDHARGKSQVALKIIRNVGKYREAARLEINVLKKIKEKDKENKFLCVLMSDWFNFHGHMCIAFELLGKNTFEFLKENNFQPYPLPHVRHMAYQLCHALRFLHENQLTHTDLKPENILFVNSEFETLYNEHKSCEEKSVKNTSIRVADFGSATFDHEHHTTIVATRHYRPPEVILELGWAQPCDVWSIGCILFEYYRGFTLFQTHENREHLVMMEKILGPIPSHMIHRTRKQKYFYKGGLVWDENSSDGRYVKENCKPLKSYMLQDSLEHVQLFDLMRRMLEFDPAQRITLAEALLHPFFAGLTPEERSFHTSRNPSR

CSNK1A1 (human) = CSNK1A1 (human) (UniProt P48729)
CSNK1E (human) = CSNK1E (human) (UniProt P49674)
CSNK2A1 (human) = CSNK2A1 (human) (UniProt P68400)
DYRK2 (human) = DYRK2 (human) (UniProt Q92630)
DYRK3 (human) = DYRK3 (human) (UniProt O43781)
DYRK4 (human) = DYRK4 (human) (UniProt Q9NR20)
EPHA4 (human) = EPHA4 (human) (UniProt P54764)
EPHA4 (human), sequence (P54764 whole entry, looked up): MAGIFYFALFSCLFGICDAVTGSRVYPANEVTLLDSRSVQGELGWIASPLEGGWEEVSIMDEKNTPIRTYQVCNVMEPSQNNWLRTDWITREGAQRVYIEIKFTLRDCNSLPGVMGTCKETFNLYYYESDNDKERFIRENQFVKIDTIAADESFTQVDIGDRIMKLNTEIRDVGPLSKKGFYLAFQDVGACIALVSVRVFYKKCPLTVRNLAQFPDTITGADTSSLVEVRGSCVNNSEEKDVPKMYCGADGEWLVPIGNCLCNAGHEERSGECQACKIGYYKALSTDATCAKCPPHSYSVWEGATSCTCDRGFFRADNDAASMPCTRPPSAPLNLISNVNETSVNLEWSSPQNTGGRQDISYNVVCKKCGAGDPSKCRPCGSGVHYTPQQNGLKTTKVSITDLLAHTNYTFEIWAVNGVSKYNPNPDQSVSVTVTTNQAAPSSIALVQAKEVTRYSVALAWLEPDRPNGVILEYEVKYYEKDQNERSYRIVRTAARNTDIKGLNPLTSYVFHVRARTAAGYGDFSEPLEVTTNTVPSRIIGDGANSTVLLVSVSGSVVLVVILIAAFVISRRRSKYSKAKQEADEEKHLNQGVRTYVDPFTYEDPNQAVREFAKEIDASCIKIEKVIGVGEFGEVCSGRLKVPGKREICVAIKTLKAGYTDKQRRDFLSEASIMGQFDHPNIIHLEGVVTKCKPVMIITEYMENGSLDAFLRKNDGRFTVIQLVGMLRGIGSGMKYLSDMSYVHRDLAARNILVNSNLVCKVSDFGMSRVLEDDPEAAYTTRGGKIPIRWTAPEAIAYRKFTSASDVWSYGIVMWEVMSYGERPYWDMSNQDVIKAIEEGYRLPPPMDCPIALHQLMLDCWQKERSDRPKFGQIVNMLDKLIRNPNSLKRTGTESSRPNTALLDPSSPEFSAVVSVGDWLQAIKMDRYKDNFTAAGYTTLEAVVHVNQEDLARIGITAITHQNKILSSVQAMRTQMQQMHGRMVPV

ERBB2 (human) = ERBB2 (human) (UniProt P04626)
ERBB2 (human), sequence (P04626 whole entry, looked up): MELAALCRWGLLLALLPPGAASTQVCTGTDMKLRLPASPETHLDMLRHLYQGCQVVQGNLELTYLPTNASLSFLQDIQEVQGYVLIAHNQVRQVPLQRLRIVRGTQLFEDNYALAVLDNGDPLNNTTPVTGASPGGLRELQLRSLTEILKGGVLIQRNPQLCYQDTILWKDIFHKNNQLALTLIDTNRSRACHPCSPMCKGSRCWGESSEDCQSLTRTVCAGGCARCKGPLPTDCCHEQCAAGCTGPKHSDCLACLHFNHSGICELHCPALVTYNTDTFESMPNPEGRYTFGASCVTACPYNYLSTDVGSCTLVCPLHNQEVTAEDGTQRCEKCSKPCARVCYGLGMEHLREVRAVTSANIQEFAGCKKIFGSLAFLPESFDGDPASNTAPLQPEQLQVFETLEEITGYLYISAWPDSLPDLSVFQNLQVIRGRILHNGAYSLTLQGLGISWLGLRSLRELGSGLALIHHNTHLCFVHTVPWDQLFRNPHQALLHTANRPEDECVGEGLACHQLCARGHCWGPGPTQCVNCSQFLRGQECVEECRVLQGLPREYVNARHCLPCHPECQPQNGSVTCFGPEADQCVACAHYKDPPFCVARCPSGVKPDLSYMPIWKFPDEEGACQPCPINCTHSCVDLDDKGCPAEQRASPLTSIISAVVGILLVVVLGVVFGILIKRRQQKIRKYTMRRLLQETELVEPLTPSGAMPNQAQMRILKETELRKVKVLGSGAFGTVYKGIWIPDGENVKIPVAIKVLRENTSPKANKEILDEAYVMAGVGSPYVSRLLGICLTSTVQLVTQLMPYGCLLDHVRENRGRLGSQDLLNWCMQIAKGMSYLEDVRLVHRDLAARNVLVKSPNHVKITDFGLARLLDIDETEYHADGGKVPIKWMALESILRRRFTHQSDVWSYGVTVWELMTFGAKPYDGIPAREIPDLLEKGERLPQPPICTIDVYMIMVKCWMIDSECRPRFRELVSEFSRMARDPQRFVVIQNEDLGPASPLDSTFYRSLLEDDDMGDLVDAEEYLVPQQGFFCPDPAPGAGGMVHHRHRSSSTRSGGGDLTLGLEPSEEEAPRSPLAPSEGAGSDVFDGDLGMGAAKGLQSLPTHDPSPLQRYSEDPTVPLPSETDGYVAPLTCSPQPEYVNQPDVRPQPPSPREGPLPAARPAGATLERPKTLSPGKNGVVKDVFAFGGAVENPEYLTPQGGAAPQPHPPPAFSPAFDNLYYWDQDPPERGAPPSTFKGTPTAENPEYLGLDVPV

FGFR3 (human) = FGFR3 (human) (UniProt P22607)
GRK4 (human) = GRK4 (human) (UniProt P32298)
GSK3B (human) = GSK3B (human) (UniProt P49841)
HIPK2 (human) = HIPK2 (human) (UniProt Q9H2X6)
MAP3K10 (human) = MAP3K10 (human) (UniProt Q02779)
MAP3K11 (human) = MAP3K11 (human) (UniProt Q16584)
MAP3K3 (human) = MAP3K3 (human) (UniProt Q99759)
MAPK1 (human) = MAPK1 (human) (UniProt P28482)
MAPK1 (human), sequence (P28482 whole entry, looked up): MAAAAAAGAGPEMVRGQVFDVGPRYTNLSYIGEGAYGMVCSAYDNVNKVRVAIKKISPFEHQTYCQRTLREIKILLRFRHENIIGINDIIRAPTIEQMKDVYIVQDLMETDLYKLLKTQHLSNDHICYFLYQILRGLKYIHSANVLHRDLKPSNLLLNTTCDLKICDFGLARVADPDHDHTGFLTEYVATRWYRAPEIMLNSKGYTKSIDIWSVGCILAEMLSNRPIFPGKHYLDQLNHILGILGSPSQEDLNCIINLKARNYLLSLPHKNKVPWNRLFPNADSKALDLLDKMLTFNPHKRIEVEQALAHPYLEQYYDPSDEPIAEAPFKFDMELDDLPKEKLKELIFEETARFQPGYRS

MINK1 (human) = MINK1 (human) (UniProt Q8N4C8)
NEK3 (human) = NEK3 (human) (UniProt P51956)
NEK7 (human) = NEK7 (human) (UniProt Q8TDX7)
PNCK (human) = PNCK (human) (UniProt Q6P2M8)
PRKACA (human) = PRKACA (human) (UniProt P17612)
RIPK2 (human) = RIPK2 (human) (UniProt O43353)
ROCK1 (human) = ROCK1 (human) (UniProt Q13464)
RPS6KA6 KD1 KD2 (human) = RPS6KA6 KD1 KD2 (human) (UniProt Q9UK32)
RPS6KB2 (human) = RPS6KB2 (human) (UniProt Q9UBS0)
RPS6KB2 (human), sequence (Q9UBS0 whole entry, looked up): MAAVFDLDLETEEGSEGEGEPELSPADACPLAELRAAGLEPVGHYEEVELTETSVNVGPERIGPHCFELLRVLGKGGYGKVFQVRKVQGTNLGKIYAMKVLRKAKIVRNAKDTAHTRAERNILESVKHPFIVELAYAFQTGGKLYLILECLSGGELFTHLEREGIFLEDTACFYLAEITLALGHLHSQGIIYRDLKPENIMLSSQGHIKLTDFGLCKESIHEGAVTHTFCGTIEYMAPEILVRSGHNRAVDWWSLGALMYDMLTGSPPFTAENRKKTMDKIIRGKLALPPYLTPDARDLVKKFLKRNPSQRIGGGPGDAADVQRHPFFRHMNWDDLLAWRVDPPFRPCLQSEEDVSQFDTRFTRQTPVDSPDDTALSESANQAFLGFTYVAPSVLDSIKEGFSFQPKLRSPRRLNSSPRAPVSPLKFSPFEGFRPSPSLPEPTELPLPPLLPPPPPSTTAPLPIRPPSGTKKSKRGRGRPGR

SGK2 (human) = SGK2 (human) (UniProt Q9HBY8)
SRPK2 (human) = SRPK2 (human) (UniProt P78362)
SRPK2 (human), sequence (P78362 whole entry, looked up): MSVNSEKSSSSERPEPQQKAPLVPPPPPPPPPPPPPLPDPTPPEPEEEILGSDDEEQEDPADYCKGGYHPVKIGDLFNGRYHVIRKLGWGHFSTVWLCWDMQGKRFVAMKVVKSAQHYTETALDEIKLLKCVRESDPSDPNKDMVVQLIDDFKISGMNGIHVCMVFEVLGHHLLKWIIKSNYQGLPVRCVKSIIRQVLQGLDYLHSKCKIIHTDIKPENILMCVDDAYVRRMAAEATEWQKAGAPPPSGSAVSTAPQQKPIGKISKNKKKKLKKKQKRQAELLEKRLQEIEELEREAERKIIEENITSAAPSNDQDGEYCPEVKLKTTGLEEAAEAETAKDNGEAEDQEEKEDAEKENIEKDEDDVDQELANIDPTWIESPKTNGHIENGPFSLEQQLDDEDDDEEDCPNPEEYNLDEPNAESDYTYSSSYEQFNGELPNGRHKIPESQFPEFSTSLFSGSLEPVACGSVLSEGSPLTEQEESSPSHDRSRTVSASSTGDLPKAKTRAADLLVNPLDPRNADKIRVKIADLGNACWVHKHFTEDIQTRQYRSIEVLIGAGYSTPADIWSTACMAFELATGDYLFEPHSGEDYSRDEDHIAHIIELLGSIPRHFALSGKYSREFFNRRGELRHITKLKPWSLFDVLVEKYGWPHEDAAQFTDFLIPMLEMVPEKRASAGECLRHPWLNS

SRPK3 (human) = SRPK3 (human) (UniProt Q9UPE1)
STK10 (human) = STK10 (human) (UniProt O94804)
TEK (human) = TEK (human) (UniProt Q02763)
TNK2 (human) = TNK2 (human) (UniProt Q07912)
ULK1 (human) = ULK1 (human) (UniProt O75385)

CAMK2G (human), sequence (Q13555 whole entry, looked up): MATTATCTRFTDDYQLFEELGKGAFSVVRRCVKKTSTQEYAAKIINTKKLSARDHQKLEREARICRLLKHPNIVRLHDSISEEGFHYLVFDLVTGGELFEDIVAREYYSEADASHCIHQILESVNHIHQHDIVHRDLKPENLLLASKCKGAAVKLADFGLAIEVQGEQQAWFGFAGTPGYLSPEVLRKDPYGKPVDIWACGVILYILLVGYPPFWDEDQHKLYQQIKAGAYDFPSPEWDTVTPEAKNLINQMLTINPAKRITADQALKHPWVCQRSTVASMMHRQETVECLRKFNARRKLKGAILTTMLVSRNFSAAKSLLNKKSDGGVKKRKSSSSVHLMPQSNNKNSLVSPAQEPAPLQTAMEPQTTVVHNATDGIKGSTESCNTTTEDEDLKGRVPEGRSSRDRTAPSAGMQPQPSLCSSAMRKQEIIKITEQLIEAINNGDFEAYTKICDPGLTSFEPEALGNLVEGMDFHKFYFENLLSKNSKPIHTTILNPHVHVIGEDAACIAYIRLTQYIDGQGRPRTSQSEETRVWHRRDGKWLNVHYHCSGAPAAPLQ

## O=C(Nc1cccc(Nc2cc(Nc3cccc(C(F)(F)F)c3)ncn2)c1)C1CC1
ABL1 (human)
  residual activity: 103%
ACVRL1 (human)
  residual activity: 114%
BRSK2 (human)
  residual activity: 95.8%
BTK (human)
  residual activity: 101%
CAMK2G (human)
  residual activity: 96.1%
CAMK4 (human)
  residual activity: 98.5%
CDK7 CCNH MNAT1 (human)
  residual activity: 97.6%
CDK9 CCNK (human)
  residual activity: 102%
CLK1 (human)
  residual activity: 107%
CLK3 (human)
  residual activity: 102%
CSNK1A1 (human)
  residual activity: 102%
CSNK1E (human)
  residual activity: 98.1%
CSNK2A1 (human)
  residual activity: 92.6%
DYRK2 (human)
  residual activity: 99.9%
DYRK3 (human)
  residual activity: 101%
DYRK4 (human)
  residual activity: 98%
EPHA4 (human)
  residual activity: 96.5%
ERBB2 (human)
  residual activity: 82.5%
FGFR3 (human)
  residual activity: 102%
GRK4 (human)
  residual activity: 104%
GSK3B (human)
  residual activity: 114%
HIPK2 (human)
  residual activity: 107%
MAP3K10 (human)
  residual activity: 101%
MAP3K11 (human)
  residual activity: 97.7%
MAP3K3 (human)
  residual activity: 95.2%
MAPK1 (human)
  residual activity: 101%
MINK1 (human)
  residual activity: 95.9%
NEK3 (human)
  residual activity: 94.4%
NEK7 (human)
  residual activity: 97.8%
PNCK (human)
  residual activity: 101%
PRKACA (human)
  residual activity: 102%
RIPK2 (human)
  residual activity: 80.8%
ROCK1 (human)
  residual activity: 98.7%
RPS6KA6 KD1 KD2 (human)
  residual activity: 96.6%
RPS6KB2 (human)
  residual activity: 103%
SGK2 (human)
  residual activity: 99%
SRPK2 (human)
  residual activity: 92%
SRPK3 (human)
  residual activity: 103%
STK10 (human)
  residual activity: 95.7%
TEK (human)
  residual activity: 101%
TNK2 (human)
  residual activity: 98.7%
ULK1 (human)
  residual activity: 100%

## O=C(CCCc1ccc(-c2ccccc2F)cc1)Nc1ccc(O)cc1
ABL1 (human)
  residual activity: 101%
ACVRL1 (human)
  residual activity: 101%
BRSK2 (human)
  residual activity: 99.2%
BTK (human)
  residual activity: 98.2%
CAMK2G (human)
  residual activity: 109%
CAMK4 (human)
  residual activity: 99.6%
CDK7 CCNH MNAT1 (human)
  residual activity: 101%
CDK9 CCNK (human)
  residual activity: 96.7%
CLK1 (human)
  residual activity: 101%
CLK3 (human)
  residual activity: 124%
CSNK1A1 (human)
  residual activity: 101%
CSNK1E (human)
  residual activity: 99.4%
CSNK2A1 (human)
  residual activity: 89.4%
DYRK2 (human)
  residual activity: 91.8%
DYRK3 (human)
  residual activity: 94.5%
DYRK4 (human)
  residual activity: 97.4%
EPHA4 (human)
  residual activity: 99.2%
ERBB2 (human)
  residual activity: 101%
FGFR3 (human)
  residual activity: 103%
GRK4 (human)
  residual activity: 96.8%
GSK3B (human)
  residual activity: 99.4%
HIPK2 (human)
  residual activity: 112%
MAP3K10 (human)
  residual activity: 88.8%
MAP3K11 (human)
  residual activity: 101%
MAP3K3 (human)
  residual activity: 108%
MAPK1 (human)
  residual activity: 69.9%
MINK1 (human)
  residual activity: 97.3%
NEK3 (human)
  residual activity: 109%
NEK7 (human)
  residual activity: 97.3%
PNCK (human)
  residual activity: 102%
PRKACA (human)
  residual activity: 99.5%
RIPK2 (human)
  residual activity: 84.5%
ROCK1 (human)
  residual activity: 106%
RPS6KA6 KD1 KD2 (human)
  residual activity: 105%
RPS6KB2 (human)
  residual activity: 104%
SGK2 (human)
  residual activity: 101%
SRPK2 (human)
  residual activity: 94.3%
SRPK3 (human)
  residual activity: 93.7%
STK10 (human)
  residual activity: 95.3%
TEK (human)
  residual activity: 101%
TNK2 (human)
  residual activity: 99.2%
ULK1 (human)
  residual activity: 106%

## COc1cc2ncnc(N3CCN(C(=O)Nc4ccc(Oc5ccccc5)cc4)CC3)c2cc1OC
ABL1 (human)
  residual activity: 97.4%
ACVRL1 (human)
  residual activity: 93%
BRSK2 (human)
  residual activity: 94.1%
BTK (human)
  residual activity: 87.8%
CAMK2G (human)
  residual activity: 100%
CAMK4 (human)
  residual activity: 102%
CDK7 CCNH MNAT1 (human)
  residual activity: 103%
CDK9 CCNK (human)
  residual activity: 83.6%
CLK1 (human)
  residual activity: 89.4%
CLK3 (human)
  residual activity: 88.9%
CSNK1A1 (human)
  residual activity: 108%
CSNK1E (human)
  residual activity: 94.6%
CSNK2A1 (human)
  residual activity: 96.2%
DYRK2 (human)
  residual activity: 95.4%
DYRK3 (human)
  residual activity: 86.3%
DYRK4 (human)
  residual activity: 79.8%
EPHA4 (human)
  residual activity: 93.2%
ERBB2 (human)
  residual activity: 100%
FGFR3 (human)
  residual activity: 99.9%
GRK4 (human)
  residual activity: 94.7%
GSK3B (human)
  residual activity: 99%
HIPK2 (human)
  residual activity: 82.8%
MAP3K10 (human)
  residual activity: 92%
MAP3K11 (human)
  residual activity: 97%
MAP3K3 (human)
  residual activity: 83.7%
MAPK1 (human)
  residual activity: 83.9%
MINK1 (human)
  residual activity: 99.6%
NEK3 (human)
  residual activity: 100%
NEK7 (human)
  residual activity: 105%
PNCK (human)
  residual activity: 94.3%
PRKACA (human)
  residual activity: 96%
RIPK2 (human)
  residual activity: 93.7%
ROCK1 (human)
  residual activity: 86%
RPS6KA6 KD1 KD2 (human)
  residual activity: 92%
RPS6KB2 (human)
  residual activity: 92.4%
SGK2 (human)
  residual activity: 96.7%
SRPK2 (human)
  residual activity: 89.1%
SRPK3 (human)
  residual activity: 97.3%
STK10 (human)
  residual activity: 97.9%
TEK (human)
  residual activity: 92.6%
TNK2 (human)
  residual activity: 77.1%
ULK1 (human)
  residual activity: 110%

## O=C1Nc2ccccc2/C1=C1\Nc2ccccc2\C1=N/O
ABL1 (human)
  residual activity: 82.5%
ACVRL1 (human)
  residual activity: 108%
BRSK2 (human)
  residual activity: 28%
BTK (human)
  residual activity: 59.3%
CAMK2G (human)
  residual activity: 69.8%
CAMK4 (human)
  residual activity: 97.4%
CDK7 CCNH MNAT1 (human)
  residual activity: 89.9%
CDK9 CCNK (human)
  residual activity: 59.7%
CLK1 (human)
  residual activity: 90.9%
CLK3 (human)
  residual activity: 48.2%
CSNK1A1 (human)
  residual activity: 48.2%
CSNK1E (human)
  residual activity: 46.1%
CSNK2A1 (human)
  residual activity: 78.2%
DYRK2 (human)
  residual activity: 79.1%
DYRK3 (human)
  residual activity: 106%
DYRK4 (human)
  residual activity: 96.8%
EPHA4 (human)
  residual activity: 89.4%
ERBB2 (human)
  residual activity: 97.9%
FGFR3 (human)
  residual activity: 70.4%
GRK4 (human)
  residual activity: 98.3%
GSK3B (human)
  residual activity: 27.3%
HIPK2 (human)
  residual activity: 104%
MAP3K10 (human)
  residual activity: 95.2%
MAP3K11 (human)
  residual activity: 17.3%
MAP3K3 (human)
  residual activity: 94.4%
MAPK1 (human)
  residual activity: 96.6%
MINK1 (human)
  residual activity: 50.2%
NEK3 (human)
  residual activity: 102%
NEK7 (human)
  residual activity: 106%
PNCK (human)
  residual activity: 106%
PRKACA (human)
  residual activity: 107%
RIPK2 (human)
  residual activity: 72.3%
ROCK1 (human)
  residual activity: 101%
RPS6KA6 KD1 KD2 (human)
  residual activity: 52.2%
RPS6KB2 (human)
  residual activity: 107%
SGK2 (human)
  residual activity: 91.8%
SRPK2 (human)
  residual activity: 91.3%
SRPK3 (human)
  residual activity: 97.5%
STK10 (human)
  residual activity: 74%
TEK (human)
  residual activity: 98.7%
TNK2 (human)
  residual activity: 40.6%
ULK1 (human)
  residual activity: 78.9%
